In brackets after ≈: the same amount, converted by molar mass.
What was measured:
Format in all cases: functional
Klebsiella pneumoniae [1] = experiment: Antibacterial activity against VIM1 carbapenemase producing multidrug-resistant Klebsiella pneumoniae GR54 clinical isolate by broth microtiter dilution method
Klebsiella pneumoniae [2] = experiment: Antibacterial activity against VIM1 carbapenemase producing multidrug-resistant Klebsiella pneumoniae 177 clinical isolate by broth microtiter dilution method
Providencia stuartii [3] = experiment: Antibacterial activity against VIM1 carbapenemase producing multidrug-resistant Providencia stuartii 67 clinical isolate by broth microtiter dilution method
Providencia stuartii [4] = experiment: Antibacterial activity against VIM1 carbapenemase producing multidrug-resistant Providencia stuartii 70 clinical isolate by broth microtiter dilution method
Pseudomonas aeruginosa [5] = experiment: Antibacterial activity against VIM2 carbapenemase producing multidrug-resistant Pseudomonas aeruginosa 47 clinical isolate by broth microtiter dilution method
Pseudomonas aeruginosa [6] = experiment: Antibacterial activity against VIM2 carbapenemase producing multidrug-resistant Pseudomonas aeruginosa 50 clinical isolate by broth microtiter dilution method
Pseudomonas aeruginosa [7] = experiment: Antibacterial activity against VIM2 carbapenemase producing multidrug-resistant Pseudomonas aeruginosa GR57 clinical isolate by broth microtiter dilution method
Pseudomonas aeruginosa [8] = experiment: Antibacterial activity against VIM2 carbapenemase producing multidrug-resistant Pseudomonas aeruginosa GR58 clinical isolate by broth microtiter dilution method
Pseudomonas aeruginosa [9] = experiment: Antibacterial activity against VIM2 carbapenemase producing multidrug-resistant Pseudomonas aeruginosa GR64 clinical isolate by broth microtiter dilution method
Pseudomonas aeruginosa [10] = experiment: Antibacterial activity against VIM2 carbapenemase producing multidrug-resistant Pseudomonas aeruginosa 8 clinical isolate by broth microtiter dilution method
Pseudomonas aeruginosa [11] = experiment: Antibacterial activity against VIM2 carbapenemase producing multidrug-resistant Pseudomonas aeruginosa 9 clinical isolate by broth microtiter dilution method
Klebsiella pneumoniae [12] = experiment: Antibacterial activity against VIM4 carbapenemase producing multidrug-resistant Klebsiella pneumoniae 128 clinical isolate by broth microtiter dilution method
Klebsiella pneumoniae [13] = experiment: Antibacterial activity against VIM4 carbapenemase producing multidrug-resistant Klebsiella pneumoniae 101 clinical isolate by broth microtiter dilution method
Enterobacter cloacae = experiment: Antibacterial activity against VIM4 carbapenemase producing multidrug-resistant Enterobacter cloacae 102 clinical isolate by broth microtiter dilution method
Klebsiella oxytoca [14] = experiment: Antibacterial activity against VIM4 carbapenemase producing multidrug-resistant Klebsiella oxytoca 126 clinical isolate by broth microtiter dilution method
Klebsiella oxytoca [15] = experiment: Antibacterial activity against VIM4 carbapenemase producing multidrug-resistant Klebsiella oxytoca 95 clinical isolate by broth microtiter dilution method
Pseudomonas aeruginosa [16] = experiment: Antibacterial activity against VIM2 carbapenemase producing multidrug-resistant Pseudomonas aeruginosa 11 clinical isolate by broth microtiter dilution method
Pseudomonas aeruginosa [17] = experiment: Antibacterial activity against VIM2 carbapenemase producing multidrug-resistant Pseudomonas aeruginosa 6 clinical isolate by broth microtiter dilution method
Pseudomonas aeruginosa [18] = experiment: Antibacterial activity against VIM2 carbapenemase producing multidrug-resistant Pseudomonas aeruginosa 12 clinical isolate by broth microtiter dilution method
Pseudomonas aeruginosa [19] = experiment: Antibacterial activity against VIM2 carbapenemase producing multidrug-resistant Pseudomonas aeruginosa 13 clinical isolate by broth microtiter dilution method
Pseudomonas aeruginosa [20] = experiment: Antibacterial activity against VIM2 carbapenemase producing multidrug-resistant Pseudomonas aeruginosa GR57 clinical isolate infected in Galleria mellonella larvae assessed as survival rate at 0.6 mg/kg measured at 96 hrs; conditions: GR57, 96 h
Escherichia coli = experiment: Antibacterial activity against VIM4 carbapenemase producing multidrug-resistant Escherichia coli 98 clinical isolate infected in Galleria mellonella larvae assessed as survival rate at 0.6 mg/kg measured at 96 hrs; conditions: Escherichia coli, 98, 96 h
Klebsiella pneumoniae [21] = experiment: Antibacterial activity against VIM4 carbapenemase producing multidrug-resistant Klebsiella pneumoniae 120 clinical isolate infected in Galleria mellonella larvae assessed as survival rate at 0.6 mg/kg measured at 96 hrs; conditions: Klebsiella pneumoniae, 120, 96 h
Pseudomonas aeruginosa [22] = experiment: Antibacterial activity against VIM2 carbapenemase producing multidrug-resistant Pseudomonas aeruginosa GR62 clinical isolate by broth microtiter dilution method

**Q.** For `C[C@@H](O)[C@H]1C(=O)N2C(C(=O)O)=C(S[C@@H]3CN[C@H](C(=O)N(C)C)C3)[C@H](C)[C@H]12` [MEROPENEM], which MIC (Klebsiella pneumoniae [1]) is on record?
**A.** 128 µg/mL (≈ 334 µM)

**Q.** And the MIC (Klebsiella pneumoniae [2])?
**A.** 1 µg/mL (≈ 2.61 µM)

**Q.** What about the MIC (Providencia stuartii [3]) of the same compound?
**A.** 8 µg/mL (≈ 20.9 µM)

**Q.** What about the MIC (Providencia stuartii [4]) of the same compound?
**A.** 8 µg/mL (≈ 20.9 µM)

**Q.** And the MIC (Pseudomonas aeruginosa [5])?
**A.** 32 µg/mL (≈ 83.4 µM)

**Q.** And the MIC (Pseudomonas aeruginosa [6])?
**A.** 32 µg/mL (≈ 83.4 µM)

**Q.** And the MIC (Pseudomonas aeruginosa [7])?
**A.** 32 µg/mL (≈ 83.4 µM)

**Q.** And the MIC (Pseudomonas aeruginosa [8])?
**A.** 32 µg/mL (≈ 83.4 µM)

**Q.** What about the MIC (Pseudomonas aeruginosa [9]) of the same compound?
**A.** 32 µg/mL (≈ 83.4 µM)

**Q.** And the MIC (Pseudomonas aeruginosa [10])?
**A.** 128 µg/mL (≈ 334 µM)

**Q.** And the MIC (Pseudomonas aeruginosa [11])?
**A.** 128 µg/mL (≈ 334 µM)

**Q.** And the MIC (Klebsiella pneumoniae [12])?
**A.** 4 µg/mL (≈ 10.4 µM)

**Q.** And the MIC (Klebsiella pneumoniae [13])?
**A.** 32 µg/mL (≈ 83.4 µM)

**Q.** And the MIC (Enterobacter cloacae)?
**A.** 32 µg/mL (≈ 83.4 µM)

**Q.** What about the MIC (Klebsiella oxytoca [14]) of the same compound?
**A.** 32 µg/mL (≈ 83.4 µM)

**Q.** What about the MIC (Klebsiella oxytoca [15]) of the same compound?
**A.** 32 µg/mL (≈ 83.4 µM)

**Q.** And the MIC (Pseudomonas aeruginosa [16])?
**A.** 32 µg/mL (≈ 83.4 µM)

**Q.** What about the MIC (Pseudomonas aeruginosa [17]) of the same compound?
**A.** 128 µg/mL (≈ 334 µM)

**Q.** What about the MIC (Pseudomonas aeruginosa [18]) of the same compound?
**A.** 128 µg/mL (≈ 334 µM)

**Q.** What about the MIC (Pseudomonas aeruginosa [19]) of the same compound?
**A.** 32 µg/mL (≈ 83.4 µM)

**Q.** And the survival at 0.6 mg/kg (Pseudomonas aeruginosa [20])?
**A.** 23%

**Q.** What about the survival at 0.6 mg/kg (Escherichia coli) of the same compound?
**A.** 44%

**Q.** What about the survival at 0.6 mg/kg (Klebsiella pneumoniae [21]) of the same compound?
**A.** 69%

**Q.** And the MIC (Pseudomonas aeruginosa [22])?
**A.** 32 µg/mL (≈ 83.4 µM)
